Experimental data: paper PMC4635352, “Preventive effect of oral goshajinkigan on chronic oxaliplatin-induced hypoesthesia in rats” (Scientific Reports, 2015)

Legend:
[1] = pharmacokinetic study of GJG-derived compounds in rat plasma (LC-MS/MS); assay type: in vivo
Method: Rats cannulated in the jugular vein were fasted for more than 16 hours with access to water. At the time of 0.083, 0.25, 0.5, 1, 2, 4 and 8 hours after oral administration of GJG (1.0 g/10 mL/kg), blood samples were collected with a heparin-coated syringe and centrifuged at 3000 rpm for 15 minutes at 4 °C. The plasma samples were pretreated by precipitating plasma protein with an organic solvent or by solid-phase extraction and injected into the LC-MS/MS system for analysis. Components of GJG in plasma were measured by a QTRAP®5500 system (AB SCIEX, Tokyo, Japan) equipped with an Agilent 1260 HPLC system (binary pump, online degasser, auto plate-sampler and column oven; Agilent Technologies, Tokyo, Japan). The lower limits for quantification were 0.001 ng/mL for benzoylaconine, benzoylmesaconine, benzoylhypaconine; 0.002 ng/mL for 14-anisoylaconine; 0.2 ng/mL for loganin and morroniside; 0.5 ng/mL for paeoniflorin; and 5 ng/mL for catalpol. Cmax and time to reach maximum plasma concentration (Tmax) as pharmacokinetic parameters were calculated based on the plasma concentration of each compound by Phoenix WinNonlin (version 6.3; Certara L.P., St. Louis, MO, USA).

[2] = system: neuro2A cells; conditions: co-administration with oxaliplatin; 100 μM (first screening), 1–100 μM (second screening), 1 h
Method: Mouse neuroblastoma Neuro2A cells (ATCC-CCL 131) were grown in Dulbecco’s MEM (Life Technologies) containing 10% fetal bovine serum with 100 units/mL penicillin and 100 mg/mL streptomycin (Life Technologies). The cells were maintained at 37 °C in a humidified atmosphere with 5% CO2 and 95% air. For measurement of ROS generation, the cells were seeded at 2.0 × 10^4 cells/well in poly-D-lysine-coated 96-well plates (BD Falcon, Franklin Lakes, NJ, USA). After plating, the cells were maintained in Dulbecco’s MEM (without phenol red or serum, Life Technologies) with 100 units/mL penicillin and 100 mg/mL streptomycin for more than 16 hours until subsequent experiments. Intracellular ROS generation caused by oxaliplatin in neuro2A cells was determined using CM-H2DCFDA. […] The cells were incubated for 30 minutes with 10 μM CM-H2DCFDA at 37 °C, followed by treatment of drugs for 1 hour. Fluorescence intensity was measured using a microplate reader (Infinite M200; Tecan Japan Co., Ltd., Kanagawa, Japan) at 485 nm (excitation) /520 nm (emission).

[3] = system: SHSY-5Y cells; parameters: method as in PMID 21241762, PMID 19379729, PMID 24263411; conditions: cited from earlier work

C[C@@]12C[C@@]3(O)O[C@@H](O1)[C@]1(COC(=O)c4ccccc4)[C@H]3C[C@@]12O[C@@H]1O[C@H](CO)[C@@H](O)[C@H](O)[C@H]1O [Paeoniflorin, paeoniflorin]
time at which maximum plasma concentration (Cmax) was reached ([1]; after oral administration of GJG 1.0 g/kg): 30 min | Cmax ([1]; rat plasma after oral GJG 1.0 g/kg, mean ± S.D., read-out: Cmax): 9.1 ± 1.2 ng/mL | Tmax ([1]; rat plasma after oral GJG 1.0 g/kg, mean ± S.D., read-out: Tmax): 34.8 ± 12 min | oxaliplatin-induced ROS generation [2]: significantly decreased | ROS production induced by H2O2 or amyloid β 25–35 peptide [3]: attenuate ROS production
